Test results published in patent US12279521B2, “Materials for organic electroluminescent devices” (Merck Patent GmbH, priority 2019, dated 2025).
Converted amounts (≈) assume the structure as drawn. Like-named read-outs stand apart in the source and are kept apart here.

Assays:
[1] = Baking of emission layer film at elevated temperature: state of film; assay type: physicochemical; conditions: for State of film after baking at elevated temp.: EML mixture per Table 5
Description: The production of the corresponding OLED components is described below.
The emission layer is composed of at least one matrix material (host material) and an emitting dopant (emitter). In addition, it is possible to use mixtures of a plurality of matrix materials and co-dopants. Details given in such a form as TMM-A (92%):dopant (8%) mean here that the material TMM-A is present in the emission layer in a proportion by weight of 92% and dopant in a proportion by weight of 8%. The mixture for the emission layer is dissolved in toluene or optionally chlorobenzene. The typical solids content of such solutions is about 17 g/I when, as here, the layer thickness of 60 nm which is typical of a device is to be achieved by means of spin-coating. The layers are spun on in an inert gas atmosphere, argon in the present case, and baked for 10 minutes.

[2] = Solubility in organic solvents via HPTLC (after 24 hours and 7 days); assay type: physicochemical; conditions: for solubility at 24 h: 25 °C; for solubility at 24 h / solubility at 7 days: organic solvent or mixture, thermodynamic from solid; for solubility at 24 h / Solubility after 24 hours, Cyclohexylbenzene / Solubility after 24 hours, Mesitylene / Solubility after 24 hours, Tetralin / Solubility after 24 hours, Toluene: room temperature; for solubility at 7 days / Solubility after 7 days, Cyclohexylbenzene / Solubility after 7 days, Mesitylene / Solubility after 7 days, Tetralin / Solubility after 7 days, Toluene: 7 days storage at room temperature
Method: One way of processing the materials of the invention is from solution. In addition, it is a feature of materials of the invention that their […] stability is elevated, as apparent from the long-term solubility data in Table 1.
Method of Determining Solubility Via HPTLC
Sample preparation: The material is weighed out in two 25 mg portions (W1, W2), 0.5 ml of solvent is added, and the mixture is shaken at 60° C. for 60 minutes and then at 25° C. and 600 rpm for 24 h. When the solution is clear, more solid material is added until a saturated solution is formed. After being cooled to room temperature, the samples are filtered through a syringe filter (0.2 μm). The solutions are stored in glass vials at room temperature for 7 days, and the solubility is determined by HPTLC on days 1 and 7. For this purpose, the filtered solutions are diluted.
Calibration: Making up a standard solution: about 6 mg of substance are dissolved in 20 ml of 2-methyl-THF. If it is not possible to dissolve the material under these conditions, the concentration can be reduced. The stock solution is diluted for the calibration (standardization).
Chromatographic conditions (HPTLC): plate: HPTLC RP 18 F254, 10×20 cm eluent: methanol/2-methyl-THF 70/30 (V/V)
HPTLC measurement: The HPTLC plate is scanned by a TLC scanner, peaks are integrated and a calibration function is determined.

[3] = Ref. temp. 150, elevated temp. 180
[4] = Ref. temp. 160, elevated temp. 170
[5] = Ref. temp. 160, elevated temp. 180
[6] = cyclohexylbenzene, read-out: Solubility after 24 hours, Cyclohexylbenzene
[7] = mesitylene, read-out: Solubility after 24 hours, Mesitylene
[8] = tetralin, read-out: Solubility after 24 hours, Tetralin
[9] = toluene, read-out: Solubility after 24 hours, Toluene
[10] = cyclohexylbenzene, read-out: Solubility after 7 days, Cyclohexylbenzene
[11] = mesitylene, read-out: Solubility after 7 days, Mesitylene
[12] = tetralin, read-out: Solubility after 7 days, Tetralin
[13] = toluene, read-out: Solubility after 7 days, Toluene
[14] = Ref. temp. 150, elevated temp. 170

| Compound | State of film after baking at elevated temp. [1, 3] | solubility at 24 h [2, 6] [mg/mL] | solubility at 24 h [2, 7] [mg/mL] | solubility at 24 h [2, 8] [mg/mL] | solubility at 24 h [2, 9] [mg/mL] | solubility at 7 days [2, 10] [mg/mL] | solubility at 7 days [2, 11] [mg/mL] | solubility at 7 days [2, 12] [mg/mL] | solubility at 7 days [2, 13] [mg/mL] | Solubility after 24 hours, Cyclohexylbenzene ([2]; cyclohexylbenzene) [g/L] | Solubility after 7 days, Cyclohexylbenzene ([2]; cyclohexylbenzene) [g/L] | Solubility after 24 hours, Mesitylene ([2]; mesitylene) [g/L] | Solubility after 7 days, Mesitylene ([2]; mesitylene) [g/L] | Solubility after 24 hours, Tetralin ([2]; tetralin) [g/L] | Solubility after 7 days, Tetralin ([2]; tetralin) [g/L] | Solubility after 24 hours, Toluene ([2]; toluene) [g/L] | Solubility after 7 days, Toluene ([2]; toluene) [g/L] | other results |
| --- | --- | --- | --- | --- | --- | --- | --- | --- | --- | --- | --- | --- | --- | --- | --- | --- | --- | --- |
| c1ccc(-c2cccc(-c3cc(-c4cccc(-c5ccccc5)c4)cc(C4(c5cc(-c6cccc(-c7ccccc7)c6)cc(-c6cccc(-c7ccccc7)c6)c5)c5ccccc5-c5ccccc54)c3)c2)cc1 [Compound B-1, reference compound] | cloudy | < 20 | > 50 | > 50 | > 50 | < 20 | < 40 | > 50 | > 50 | – | – | – | – | – | – | – | – | State of film after baking at elevated temp. [1, 4]: slightly cloudy; State of film after baking at elevated temp. [1, 5]: cloudy |
| c1ccc(-c2cc(-c3ccccc3)cc(-c3cccc(-c4cccc(C5(c6cccc(-c7cccc(-c8cc(-c9ccccc9)cc(-c9ccccc9)c8)c7)c6)c6ccccc6-c6ccccc65)c4)c3)c2)cc1 [Compound B-2, reference compound] | – | > 50 | < 1 | > 50 | < 1 | < 1 | < 1 | < 20 | < 1 | – | – | – | – | – | – | – | – | State of film after baking at elevated temp. [1, 5]: slightly cloudy |
| c1ccc(-c2cccc(-c3cc(-c4cccc(-c5ccccc5)c4)cc(C4(c5cc(-c6cccc(-c7ccccc7)c6)cc(-c6cccc(-c7ccccc7)c6)c5)c5ccccc5-c5ccc(-c6ccccc6)cc54)c3)c2)cc1 [Compound B-3, reference compound] | – | > 50 | < 50 | < 50 | > 50 | > 50 | < 40 | < 50 | > 50 | – | – | – | – | – | – | – | – | – |
| c1ccc(-c2cccc(-c3cc(-c4ccccc4)cc(-c4cccc(C5(c6cccc(-c7cc(-c8ccccc8)cc(-c8cccc(-c9ccccc9)c8)c7)c6)c6ccccc6-c6ccccc65)c4)c3)c2)cc1 [Compound B-4, reference compound] | slightly cloudy | – | – | – | – | – | – | – | – | – | – | – | – | – | – | – | – | – |
| c1ccc(-c2cc(-c3ccccc3)cc(-c3cccc(-c4cccc(C5(c6cccc(-c7cccc(-c8cc(-c9ccccc9)cc(-c9ccccc9)c8)c7)c6)c6ccccc6-c6c(-c7ccccc7)cccc65)c4)c3)c2)cc1 [Compound M-0002] | clear | – | – | – | – | – | – | – | – | <1 | <1 | >50 | 50 (≈ 49.8 mM) | >50 | >50 | >50 | >50 | State of film after baking at elevated temp. [1, 5]: clear; baking of the layer at higher temperature, cloudiness, compared with B-2 ([1]; versus B-2): can be baked at higher temperature without cloudiness |
| c1ccc(-c2cccc(-c3cc(-c4cccc(-c5ccccc5)c4)cc(C4(c5cc(-c6cccc(-c7ccccc7)c6)cc(-c6cccc(-c7ccccc7)c6)c5)c5ccccc5-c5c(-c6ccccc6)cccc54)c3)c2)cc1 [Compound M-0005] | – | – | – | – | – | – | – | – | – | >50 | >50 | >50 | >50 | >50 | <50 | >50 | >50 | State of film after baking at elevated temp. [1, 14]: clear; State of film after baking at elevated temp. [1, 4]: clear; solubility in cyclohexylbenzene compared with B-1 ([2]; cyclohexylbenzene, versus B-1): significantly better; long-term stability of the solution in mesitylene compared with B-1 ([2]; mesitylene, versus B-1): significantly better |
| c1ccc(-c2cccc(-c3cc(-c4cccc(-c5ccccc5)c4)cc(C4(c5cc(-c6cccc(-c7ccccc7)c6)cc(-c6cccc(-c7ccccc7)c6)c5)c5ccccc5-c5c(-c6ccccc6-c6ccccc6)cccc54)c3)c2)cc1 [Compound M-0043] | clear | – | – | – | – | – | – | – | – | <50 | <50 | <50 | <50 | >50 | >50 | <50 | <50 | – |
| Cc1cc(C)c(-c2cccc3c2-c2ccccc2C3(c2cc(-c3cc(-c4ccc(C(C)(C)C)cc4)cc(-c4ccc(C(C)(C)C)cc4)c3)cc(-c3cc(-c4ccc(C(C)(C)C)cc4)cc(-c4ccc(C(C)(C)C)cc4)c3)c2)c2cc(-c3cc(-c4ccc(C(C)(C)C)cc4)cc(-c4ccc(C(C)(C)C)cc4)c3)cc(-c3cc(-c4ccc(C(C)(C)C)cc4)cc(-c4ccc(C(C)(C)C)cc4)c3)c2)c(C)c1 [Compound M-0086] | clear | > 50 | > 50 | > 50 | > 50 | > 50 | > 50 | > 50 | > 50 | – | – | – | – | – | – | – | – | – |
| c1ccc(-c2cc(-c3ccccc3)cc(-c3cccc(-c4cccc(C5(c6cccc(-c7cccc(-c8cc(-c9ccccc9)cc(-c9ccccc9)c8)c7)c6)c6ccccc6-c6c(-c7cccc(-c8ccccc8)c7)cccc65)c4)c3)c2)cc1 [Compound M-0162] | clear | < 50 | > 50 | > 50 | > 50 | < 50 | > 50 | > 50 | > 50 | – | – | – | – | – | – | – | – | – |
| Cc1ccc2c(c1)-c1c(-c3cccc(-c4ccccc4)c3)cccc1C2(c1cccc(-c2cccc3c2-c2ccccc2C3(C)C)c1)c1cccc(-c2cccc3c2-c2ccccc2C3(C)C)c1 [Compound M-0172] | – | – | – | – | – | – | – | – | – | <40 | <40 | <30 | <30 | <40 | <40 | <30 | <30 | State of film after baking at elevated temp. [1, 14]: clear |
| c1ccc(-c2cc(-c3ccccc3)cc(-c3cccc(-c4cccc(C5(c6cccc(-c7cccc(-c8cc(-c9ccccc9)cc(-c9ccccc9)c8)c7)c6)c6cc7c(cc6-c6c5ccc5c6-c6ccccc6C56c5ccccc5-c5ccccc56)OCO7)c4)c3)c2)cc1 [Compound M-0226] | clear | – | – | – | – | – | – | – | – | <30 | <25 | <20 | <20 | <30 | <25 | <20 | <20 | solubility in toluene and mesitylene compared with B-2 ([2]; toluene and mesitylene, versus B-2): significantly better; long-term stability of the solutions compared with B-2 ([2]; versus B-2): significantly better |
